Test results taken from patent US12115178B2, “Acylated active agents and methods of their use for the treatment of autoimmune disorders” (Flagship Pioneering Innovations V, Inc., priority 2018, dated 2024).

Tests used:
Assay type in all cases: in vitro ADME
[1] = Assay 1. Stability in Simulated Gastric Fluid (SGF)
Summary of the method: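 Degradation rate from LC/MS of acetonitrile-quenched aliquots (T0, then regular intervals). Fresh SGF (pH 1.6 NaCl, FaSSIF powder, pepsin 0.1 mg/mL) held compound at 1 μM final, 37° C; 1 mM DMSO stock.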

[2] = Assay 2. Stability in Simulated Intestinal Fluid (SIF); settings: SIF pH 6.7 with pancreatin, 1 μM, 37° C.
Summary of the method: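 Degradation rates came from LC/MS of acetonitrile-quenched samples drawn at intervals, starting at T0. The medium was freshly made pH 6.7 FaSSIF containing pancreatin, and test compound was present at 1 µM while being shaken at 37 °C.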

[3] = Assay 3. In vitro Colonic Material Stability Assay
Description: Assay 3. In vitro Colonic Material Stability Assay. This assay was used to assess the stability of an acylated active agent in a large intestine. All experiments were performed in an anaerobic chamber containing 90% nitrogen, 5% hydrogen and 5% carbon dioxide. Colonic material was resuspended as a slurry (15% w/v final concentration) in pre-reduced, anaerobically sterilized dilution blanks (Anaerobe Systems AS-908). The colonic material was then inoculated into 96 well plates containing YCFAC media (Anaerobe Systems AS-680) or other suitable media (6.7 μL slurry into 1 mL total media). Compounds or groups of compounds were added to each individual well to reach a final analyte concentration of 1 or 10 μM, and the material was mixed by pipetting. Sample was removed after set timepoints (0, 120, 240, 480, 1440, 2880 minutes after initiation of the assay), quenched with acetonitrile containing internal standard, and analyzed by LC/MS.

[4] = SGF pH 1.6 with pepsin, 1 μM, 37° C.
[5] = colonic material slurry, anaerobic, 1 or 10 μM

Compound | Assay 1 (SGF) (% Remaining @ 1 hour) [1, 4] | Assay 2 (SIF) (% @ Remaining 4 hours) [2] | Assay 3 (% Remaining at 24 h) [3, 5] | Assay 1 (SGF) (% Remaining @ 1 hour) ([1]; Run 1, SGF) | Assay 1 (SGF) (% Remaining @ 1 hour) ([1]; Run 2, SGF) | Assay 3 (% Remaining at 24 h) ([3]; Run 1, colonic material) | Assay 3 (% Remaining at 24 h) ([3]; Run 2, colonic material)
CCCC(=O)O[C@@H]1[C@@H](OC(=O)CCC)[C@@H](Oc2ccc(N)cc2C(=O)O)OC[C@@H]1OC(=O)CCC [Compound 22, 5-amino-2-[(2R,3R,4S,5S)-3,4,5-tri(butanoyloxy)tetrahydropyran-2-yl]oxy-benzoic acid] | C (>75% of the tested compound remaining) | B (25-75% of the tested compound remaining) | B (25-75% of the tested compound remaining) |  |  |  | 
CCCC(=O)O[C@@H]1[C@@H](OC(=O)CCC)[C@H](C)O[C@@H](Oc2ccc(N)cc2C(=O)O)[C@@H]1OC(=O)CCC [Compound 39, 5-amino-2-(((2S,3R,4R,5S,6S)-3,4,5-tris(butyryloxy)-6-methyltetrahydro-2H-pyran-2-yl)oxy)benzoic acid] | C (>75% of the tested compound remaining) | B (25-75% of the tested compound remaining) | C (>75% of the tested compound remaining) |  |  |  | 
CCCC(=O)O[C@@H]1[C@@H](OC(=O)CCC)[C@H](C)O[C@@H](Oc2ccccc2C(=O)O)[C@@H]1OC(=O)CCC [Compound 40, 2-(((2S,3R,4R,5S,6S)-3,4,5-tris(butyryloxy)-6-methyltetrahydro-2H-pyran-2-yl)oxy)benzoic acid] | C (>75% of the tested compound remaining) | C (>75% of the tested compound remaining) | C (>75% of the tested compound remaining) |  |  |  | 
CCC(=O)O[C@H]1O[C@H](C(=O)O)[C@@H](OC(=O)CC)[C@H](OC(=O)CC)[C@H]1OC(=O)CC [Compound 46, (2S,3S,4S,5R,6R)-3,4,5,6-tetrakis(propanoyloxy)oxane-2-carboxylic acid] | C (>75% of the tested compound remaining) | A (<25% of the tested compound remaining) | A (<25% of the tested compound remaining) |  |  |  | 
CCC(=O)O[C@@H]1O[C@H](C(=O)O)[C@@H](OC(=O)CC)[C@H](OC(=O)CC)[C@H]1OC(=O)CC [Compound 47, (2S,3S,4S,5R,6S)-3,4,5,6-tetrakis(propanoyloxy)oxane-2-carboxylic acid] | C (>75% of the tested compound remaining) | A (<25% of the tested compound remaining) | A (<25% of the tested compound remaining) |  |  |  | 
O=C(CCc1c[nH]c2ccccc12)O[C@@H]1O[C@H](C(=O)O)[C@@H](OC(=O)CCc2c[nH]c3ccccc23)[C@H](OC(=O)CCc2c[nH]c3ccccc23)[C@H]1OC(=O)CCc1c[nH]c2ccccc12 [Compound 49, (2S,3S,4S,5R,6S)-3,4,5,6-tetrakis({[3-(1H-indol-3-yl)propanoyl]oxy})oxane-2-carboxylic acid] |  | A (<25% of the tested compound remaining) | A (<25% of the tested compound remaining) | B (25-75% of the tested compound remaining) | C (>75% of the tested compound remaining) |  | 
CCCC(=O)O[C@H]1[C@H](OC)OC[C@@H](OC(=O)CCC)[C@H]1OC(=O)CCC [Compound 50, (2R,3R,4R,5R)-3,5-bis(butanoyloxy)-2-methoxyoxan-4-yl butanoate] | C (>75% of the tested compound remaining) | A (<25% of the tested compound remaining) | A (<25% of the tested compound remaining) |  |  |  | 
CCC(=O)O[C@H]1[C@H](OC)OC[C@@H](OC(=O)CC)[C@H]1OC(=O)CC [Compound 51, (2R,3R,4R,5R)-2-methoxy-3,5-bis(propanoyloxy)oxan-4-yl propanoate] | C (>75% of the tested compound remaining) | C (>75% of the tested compound remaining) | B (25-75% of the tested compound remaining) |  |  |  | 
CCCC(=O)O[C@@H]1[C@@H](OC(=O)CCC)[C@@H](OC)OC[C@@H]1OC(=O)CCC [Compound 52, (2S,3R,4S,5S)-3,5-bis(butanoyloxy)-2-methoxyoxan-4-yl butanoate] | B (25-75% of the tested compound remaining) | B (25-75% of the tested compound remaining) | B (25-75% of the tested compound remaining) |  |  |  | 
CCC(=O)O[C@@H]1[C@@H](OC(=O)CC)[C@@H](OC)OC[C@@H]1OC(=O)CC [Compound 53, (2S,3R,4S,5S)-2-methoxy-3,5-bis(propanoyloxy)oxan-4-yl propanoate] | C (>75% of the tested compound remaining) | B (25-75% of the tested compound remaining) | C (>75% of the tested compound remaining) |  |  |  | 
CCC(=O)OC[C@H]1O[C@H](OC)[C@H](OC(=O)CC)[C@@H](OC(=O)CC)[C@@H]1OC(=O)CC [Compound 55, [(2R,3R,4S,5R,6S)-6-methoxy-3,4,5-tris(propanoyloxy)oxan-2-yl]methyl propanoate] | C (>75% of the tested compound remaining) | A (<25% of the tested compound remaining) | A (<25% of the tested compound remaining) |  |  |  | 
CCC(=O)OC[C@H]1O[C@H](OC)[C@H](OC(=O)CC)[C@@H](OC(=O)CC)[C@H]1OC(=O)CC [Compound 57, [(2R,3S,4S,5R,6S)-6-methoxy-3,4,5-tris(propanoyloxy)oxan-2-yl]methyl propanoate] | C (>75% of the tested compound remaining) | A (<25% of the tested compound remaining) | A (<25% of the tested compound remaining) |  |  |  | 
C[C@@H]1OC(O)[C@@H](OC(=O)CCc2c[nH]c3ccccc23)[C@H](OC(=O)CCc2c[nH]c3ccccc23)[C@@H]1OC(=O)CCc1c[nH]c2ccccc12 (stereo partly drawn) [Compound 62, (2S,3R,4R,5S)-6-hydroxy-4,5-bis({[3-(1H-indol-3-yl)propanoyl]oxy})-2-methyloxan-3-yl 3-(1H-indol-3-yl)propanoate] | C (>75% of the tested compound remaining) | A (<25% of the tested compound remaining) | C (>75% of the tested compound remaining) |  |  |  | 
CCC(=O)O[C@@H]1[C@H](OC)OC[C@@H](OC(=O)CC)[C@H]1OC(=O)CC [Compound 68, (2R,3S,4R,5R)-2-methoxy-3,5-bis(propanoyloxy)oxan-4-yl propanoate] | C (>75% of the tested compound remaining) | A (<25% of the tested compound remaining) | B (25-75% of the tested compound remaining) |  |  |  | 
O=C(CCc1c[nH]c2ccccc12)O[C@@H]1OC[C@H](OC(=O)CCc2c[nH]c3ccccc23)[C@H](OC(=O)CCc2c[nH]c3ccccc23)[C@H]1OC(=O)CCc1c[nH]c2ccccc12 [Compound 69, (2S,3R,4S,5S)-3,4,5-tris({[3-(1H-indol-3-yl)propanoyl]oxy})oxan-2-yl 3-(1H-indol-3-yl)propanoate] | B (25-75% of the tested compound remaining) | A (<25% of the tested compound remaining) | A (<25% of the tested compound remaining) |  |  |  | 
C[C@@H]1O[C@H](OC(=O)CCc2c[nH]c3ccccc23)[C@@H](OC(=O)CCc2c[nH]c3ccccc23)[C@H](OC(=O)CCc2c[nH]c3ccccc23)[C@@H]1OC(=O)CCc1c[nH]c2ccccc12 [Compound 70, (2R,3S,4R,5R,6S)-3,4,5-tris({[3-(1H-indol-3-yl)propanoyl]oxy})-6-methyloxan-2-yl 3-(1H-indol-3-yl)propanoate] | B (25-75% of the tested compound remaining) | A (<25% of the tested compound remaining) |  |  |  | A (<25% of the tested compound remaining) | B (25-75% of the tested compound remaining)
CCCC(=O)O[C@@H]1[C@@H](OC(=O)CCC)[C@@H](OC)OC[C@H]1OC(=O)CCC [Compound 71, (2S,3R,4S,5R)-4,5-bis(butanoyloxy)-2-methoxyoxan-3-yl butanoate] | B (25-75% of the tested compound remaining) | A (<25% of the tested compound remaining) | A (<25% of the tested compound remaining) |  |  |  | 
CCC(=O)O[C@@H]1[C@@H](OC(=O)CC)[C@@H](OC)OC[C@H]1OC(=O)CC [Compound 72, (2S,3R,4S,5R)-2-methoxy-4,5-bis(propanoyloxy)oxan-3-yl propanoate] | C (>75% of the tested compound remaining) | B (25-75% of the tested compound remaining) | A (<25% of the tested compound remaining) |  |  |  | 
